# Experimental data: PubChem BioAssay (NCI)
#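 Exposure lasted 48 hours, with cells grown in 96-well plates and compounds tested at five concentrations. At the GI50, growth is halved. TGI: concentration producing complete growth inhibition.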
# Legend:
# Assay in all cases: inhibition of tumour cell growth, NCI panel, 48 h
# [1] = system: SW-620 colon
# [2] = system: MALME-3M melanoma
# [3] = system: M14 melanoma
# [4] = system: SN12C renal
# [5] = system: SF-268 CNS
# [6] = system: SR leukemia
# [7] = system: ACHN renal
# [8] = system: HOP-62 NSCLC
# [9] = system: SNB-75 CNS
# [10] = system: TK-10 renal
Compound,TGI [1],TGI [2],TGI [3],TGI [4],TGI [5],TGI [6],TGI [7],TGI [8],TGI [9],TGI [10],GI50 [1],GI50 [2],GI50 [3],GI50 [4],GI50 [5],GI50 [6],GI50 [7],GI50 [8],GI50 [9],GI50 [10]
O=C(Cc1ccccc1)NS(=O)(=O)c1ccccc1,> 100 µM,> 100 µM,> 100 µM,> 100 µM,> 100 µM,> 100 µM,> 100 µM,> 100 µM,> 100 µM,> 100 µM,,,,,,,,,,
Nc1nc(=Nc2ccccc2)ss1,> 100 µM,> 100 µM,> 100 µM,> 100 µM,> 100 µM,> 100 µM,> 100 µM,> 100 µM,> 100 µM,> 100 µM,,,,,,,,,,
CC(C)(C)c1cc(-c2nc3c(F)c(F)c(F)c(F)c3[nH]2)cc(C(C)(C)C)c1O,> 100 µM,> 100 µM,> 100 µM,> 100 µM,> 100 µM,> 100 µM,> 100 µM,> 100 µM,> 100 µM,> 100 µM,> 100 µM,> 100 µM,> 100 µM,> 100 µM,> 100 µM,38 µM,> 100 µM,> 100 µM,> 100 µM,> 100 µM
COC(=O)Cc1cc(=O)n2c([nH]c3ccccc32)c1C#N,> 100 µM,> 100 µM,> 100 µM,> 100 µM,> 100 µM,> 100 µM,> 100 µM,> 100 µM,> 100 µM,> 100 µM,,,,,,,,,,
Oc1c(I)cc(I)cc1CN(Cc1ccccn1)Cc1ccccn1,23.5 µM,9.2 µM,9.86 µM,33.6 µM,16.1 µM,9.77 µM,6.98 µM,8.45 µM,7.67 µM,11.7 µM,0.847 µM,1.84 µM,0.766 µM,1.23 µM,0.575 µM,0.476 µM,0.502 µM,0.311 µM,0.419 µM,0.367 µM
Cn1sc2ccccc2c1=S,5.2 µM,22.9 µM,22.2 µM,18.2 µM,9.79 µM,38.7 µM,26.7 µM,24.5 µM,17.4 µM,44.8 µM,,,,,,,,,,
CCCCCCCCCCCCC(CCCCCCCCCCCC)OP(=O)(O)O,> 100 µM,> 100 µM,> 100 µM,> 100 µM,> 100 µM,> 100 µM,> 100 µM,> 100 µM,> 100 µM,> 100 µM,,,,,,,,,,
Cc1ccc(C2=NN(c3ccc(S(N)(=O)=O)cc3)C(c3cn(-c4ccccc4)nc3-c3ccccc3)C2)cc1 (stereo not given),> 100 µM,> 100 µM,> 100 µM,5 µM,> 100 µM,> 100 µM,> 100 µM,> 100 µM,> 100 µM,> 100 µM,9.82 µM,81 µM,8.54 µM,2.23 µM,25.7 µM,5.92 µM,9.51 µM,> 100 µM,80.5 µM,71.2 µM
CCOCCOC[C@H]1CCCN(c2ccnc3sc(C(N)=O)c(N)c23)C1,> 100 µM,> 100 µM,> 100 µM,> 100 µM,> 100 µM,> 100 µM,> 100 µM,> 100 µM,> 100 µM,> 100 µM,> 100 µM,86.6 µM,63.1 µM,29.8 µM,56.4 µM,11 µM,9.95 µM,> 100 µM,63.9 µM,> 100 µM
C=C(CN(C)C)C(=O)c1ccc(Oc2ccccc2)cc1,9.27 µM,9.18 µM,4.02 µM,16.4 µM,32.5 µM,4.24 µM,5.08 µM,43.7 µM,35.5 µM,14.5 µM,,,,,,,,,,
Cc1c(-c2nnc(-c3cc(Cl)c(Cl)cc3Cl)o2)nnn1-c1ccnc2c(C(F)(F)F)cccc12,> 100 µM,51.1 µM,70.5 µM,> 100 µM,62.2 µM,47.5 µM,51.6 µM,47.7 µM,43.5 µM,87 µM,30.8 µM,19.2 µM,26.2 µM,31.4 µM,25 µM,20.6 µM,21.9 µM,20.5 µM,18.7 µM,32.2 µM
Nc1nc(-c2ccc(Cl)cc2)cc(-c2ccccc2)c1-c1nc2ccccc2o1,31.1 µM,33.4 µM,26.2 µM,9.29 µM,67.2 µM,8.97 µM,23.3 µM,7.47 µM,24.5 µM,8.95 µM,13.4 µM,10.3 µM,10.4 µM,3.05 µM,6.38 µM,3.37 µM,8.8 µM,2.92 µM,10.5 µM,3.02 µM
O=C(O)c1ccccc1Nc1ccc2nnc(-c3ccncc3)n2n1,36 µM,26.3 µM,40.9 µM,17.1 µM,29.2 µM,> 100 µM,17.4 µM,33.5 µM,25 µM,25 µM,6.48 µM,7.97 µM,7.03 µM,3.56 µM,5.6 µM,5.23 µM,4.24 µM,15.4 µM,12.2 µM,7.13 µM
C=CCSSc1ncnc2c1ncn2C1OC(CO)C(O)C1O (stereo not given),23.2 µM,> 47.4 µM,> 100 µM,> 100 µM,> 58.1 µM,3.73 µM,> 100 µM,> 100 µM,96.9 µM,> 42.3 µM,4.07 µM,2.48 µM,0.536 µM,11.3 µM,5.05 µM,0.205 µM,3.34 µM,1.78 µM,0.731 µM,0.598 µM
Cc1cc(N(CCOS(C)(=O)=O)CCOS(C)(=O)=O)ccc1C=Nc1ccc(-c2csc(-c3ccc(Br)cc3)n2)cc1,> 100 µM,67.2 µM,50.1 µM,> 79.7 µM,> 80.2 µM,> 94.3 µM,13.8 µM,26.4 µM,23.8 µM,36.9 µM,,,,,,,,,,
